{
  "source": "the kinase profiling compilation of Christmann-Franck et al. (2016)",
  "experiment_in_all_cases": "radiometric filter-binding kinase assay, Kinaseprofiler",
  "key": {"EPHA8 (human)": {"target": "EPHA8 (human) (UniProt P29322)", "conditions": "ATP 200 µM"}, "MTOR (human)": {"target": "MTOR (human) (UniProt P42345)", "conditions": "ATP 70 µM"}, "[1]": {"tested_on": "RPS6KB1 (human), P23443 [T412E]", "conditions": "ATP 15 µM"}, "PRKACA (human)": {"target": "PRKACA (human) (UniProt P17612)", "conditions": "ATP 10 µM"}, "CDK9 CCNT1 (human)": {"target": "CDK9 CCNT1 (human) (UniProt P50750+O60563)", "conditions": "ATP 45 µM"}, "PRKCG (human)": {"target": "PRKCG (human) (UniProt P05129)", "conditions": "ATP 15 µM"}, "CAMK1D (human)": {"target": "CAMK1D (human) (UniProt Q8IU85)", "conditions": "ATP 15 µM"}, "MAPK1 (human)": {"target": "MAPK1 (human) (UniProt P28482)", "conditions": "ATP 155 µM"}, "CSF1R (human)": {"target": "CSF1R (human) (UniProt P07333)", "conditions": "ATP 200 µM"}, "MAP3K5 (human)": {"target": "MAP3K5 (human) (UniProt Q99683)", "sequence (Q99683 whole entry, looked up)": "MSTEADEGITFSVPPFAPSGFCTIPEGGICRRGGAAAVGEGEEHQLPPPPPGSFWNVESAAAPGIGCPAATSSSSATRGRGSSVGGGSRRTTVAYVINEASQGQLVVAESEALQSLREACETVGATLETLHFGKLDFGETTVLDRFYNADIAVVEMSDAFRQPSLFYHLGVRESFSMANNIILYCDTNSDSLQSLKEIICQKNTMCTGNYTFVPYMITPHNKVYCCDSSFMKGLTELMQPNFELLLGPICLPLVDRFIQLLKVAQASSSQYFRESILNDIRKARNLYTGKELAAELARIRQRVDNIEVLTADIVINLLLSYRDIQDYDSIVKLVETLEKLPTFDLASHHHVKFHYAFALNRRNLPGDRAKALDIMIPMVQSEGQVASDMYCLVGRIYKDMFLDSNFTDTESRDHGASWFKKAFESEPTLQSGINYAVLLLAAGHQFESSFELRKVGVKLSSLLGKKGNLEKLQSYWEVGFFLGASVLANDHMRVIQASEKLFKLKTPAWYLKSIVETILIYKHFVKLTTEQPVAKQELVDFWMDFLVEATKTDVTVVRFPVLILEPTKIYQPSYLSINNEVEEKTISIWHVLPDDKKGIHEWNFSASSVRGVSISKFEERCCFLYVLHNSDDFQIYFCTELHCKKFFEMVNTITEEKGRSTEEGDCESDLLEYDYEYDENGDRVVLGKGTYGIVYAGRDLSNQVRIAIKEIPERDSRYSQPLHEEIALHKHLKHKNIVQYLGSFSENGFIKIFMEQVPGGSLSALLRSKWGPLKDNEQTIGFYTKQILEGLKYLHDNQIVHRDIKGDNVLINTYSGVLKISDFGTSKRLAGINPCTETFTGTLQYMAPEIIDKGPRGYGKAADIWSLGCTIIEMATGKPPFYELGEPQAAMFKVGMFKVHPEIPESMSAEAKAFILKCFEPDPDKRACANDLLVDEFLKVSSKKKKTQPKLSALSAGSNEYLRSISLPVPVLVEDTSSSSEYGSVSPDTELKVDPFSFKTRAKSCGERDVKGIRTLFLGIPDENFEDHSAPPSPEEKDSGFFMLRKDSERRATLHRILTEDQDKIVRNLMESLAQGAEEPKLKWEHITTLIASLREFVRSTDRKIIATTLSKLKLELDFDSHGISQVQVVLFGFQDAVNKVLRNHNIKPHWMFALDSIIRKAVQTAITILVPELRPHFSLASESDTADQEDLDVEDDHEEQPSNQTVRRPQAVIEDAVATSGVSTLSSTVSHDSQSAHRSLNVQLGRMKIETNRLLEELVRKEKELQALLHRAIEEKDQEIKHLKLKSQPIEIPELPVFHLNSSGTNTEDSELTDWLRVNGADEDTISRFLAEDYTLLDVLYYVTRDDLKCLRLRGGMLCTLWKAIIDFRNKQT", "conditions": "ATP 200 µM"}, "SYK (human)": {"target": "SYK (human) (UniProt P43405)", "conditions": "ATP 15 µM"}, "PLK3 (human)": {"target": "PLK3 (human) (UniProt Q9H4B4)", "conditions": "ATP 70 µM"}, "NEK7 (human)": {"target": "NEK7 (human) (UniProt Q8TDX7)", "conditions": "ATP 45 µM"}, "TLK2 (human)": {"target": "TLK2 (human) (UniProt Q86UE8)", "sequence (Q86UE8 whole entry, looked up)": "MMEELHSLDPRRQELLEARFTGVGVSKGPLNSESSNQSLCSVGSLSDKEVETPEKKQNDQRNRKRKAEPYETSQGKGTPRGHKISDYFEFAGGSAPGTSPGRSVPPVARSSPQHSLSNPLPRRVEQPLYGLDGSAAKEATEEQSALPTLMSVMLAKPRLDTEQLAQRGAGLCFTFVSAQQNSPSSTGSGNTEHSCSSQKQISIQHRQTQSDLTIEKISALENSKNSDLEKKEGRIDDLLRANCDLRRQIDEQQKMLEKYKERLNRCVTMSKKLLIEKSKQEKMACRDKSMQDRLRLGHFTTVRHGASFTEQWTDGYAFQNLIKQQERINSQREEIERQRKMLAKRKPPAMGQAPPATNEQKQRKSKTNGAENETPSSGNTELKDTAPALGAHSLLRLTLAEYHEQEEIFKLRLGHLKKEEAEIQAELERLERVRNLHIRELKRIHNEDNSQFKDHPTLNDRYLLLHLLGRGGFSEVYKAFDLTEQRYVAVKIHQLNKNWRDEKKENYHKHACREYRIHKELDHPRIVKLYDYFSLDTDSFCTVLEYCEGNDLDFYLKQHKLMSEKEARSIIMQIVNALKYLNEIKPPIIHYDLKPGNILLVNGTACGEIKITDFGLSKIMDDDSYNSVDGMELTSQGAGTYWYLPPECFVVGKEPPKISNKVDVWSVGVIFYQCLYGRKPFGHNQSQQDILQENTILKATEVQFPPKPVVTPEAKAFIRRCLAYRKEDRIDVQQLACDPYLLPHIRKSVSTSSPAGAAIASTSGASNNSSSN", "conditions": "ATP 10 µM"}, "SRC (human)": {"target": "SRC (human) (UniProt P12931)", "conditions": "ATP 200 µM"}, "KIT (human)": {"target": "KIT (human) (UniProt P10721)", "conditions": "ATP 200 µM"}, "TBK1 (human)": {"target": "TBK1 (human) (UniProt Q9UHD2)", "conditions": "ATP 155 µM"}, "MAP2K7 (human)": {"target": "MAP2K7 (human) (UniProt O14733)", "sequence (O14733 whole entry, looked up)": "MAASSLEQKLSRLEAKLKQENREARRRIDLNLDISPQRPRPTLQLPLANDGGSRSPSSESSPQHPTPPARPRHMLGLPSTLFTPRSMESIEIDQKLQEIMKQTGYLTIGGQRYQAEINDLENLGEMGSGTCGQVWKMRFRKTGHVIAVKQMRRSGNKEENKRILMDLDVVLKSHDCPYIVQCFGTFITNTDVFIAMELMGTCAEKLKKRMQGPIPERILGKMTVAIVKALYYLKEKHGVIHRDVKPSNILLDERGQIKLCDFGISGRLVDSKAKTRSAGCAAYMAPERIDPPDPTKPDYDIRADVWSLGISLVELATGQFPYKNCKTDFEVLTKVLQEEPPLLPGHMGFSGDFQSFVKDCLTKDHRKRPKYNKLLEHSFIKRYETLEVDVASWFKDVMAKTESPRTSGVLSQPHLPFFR", "conditions": "ATP 10 µM"}, "EPHB3 (human)": {"target": "EPHB3 (human) (UniProt P54753)", "conditions": "ATP 90 µM"}, "CDK6 CCND3 (human)": {"target": "CDK6 CCND3 (human) (UniProt P30281+Q00534)", "conditions": "ATP 200 µM"}, "DYRK2 (human)": {"target": "DYRK2 (human) (UniProt Q92630)", "conditions": "ATP 15 µM"}, "TAOK2 (human)": {"target": "TAOK2 (human) (UniProt Q9UL54)", "conditions": "ATP 15 µM"}, "PTK6 (human)": {"target": "PTK6 (human) (UniProt Q13882)", "conditions": "ATP 15 µM"}, "FGR (human)": {"target": "FGR (human) (UniProt P09769)", "conditions": "ATP 45 µM"}, "[2]": {"target": "CSNK2A1 CSNK2B CSNK2A2 (human) (UniProt P19784+P68400+P67870)", "conditions": "ATP 15 µM"}, "PRKCB2 (human)": {"target": "PRKCB2 (human) (UniProt P05771)", "sequence (P05771 whole entry, looked up)": "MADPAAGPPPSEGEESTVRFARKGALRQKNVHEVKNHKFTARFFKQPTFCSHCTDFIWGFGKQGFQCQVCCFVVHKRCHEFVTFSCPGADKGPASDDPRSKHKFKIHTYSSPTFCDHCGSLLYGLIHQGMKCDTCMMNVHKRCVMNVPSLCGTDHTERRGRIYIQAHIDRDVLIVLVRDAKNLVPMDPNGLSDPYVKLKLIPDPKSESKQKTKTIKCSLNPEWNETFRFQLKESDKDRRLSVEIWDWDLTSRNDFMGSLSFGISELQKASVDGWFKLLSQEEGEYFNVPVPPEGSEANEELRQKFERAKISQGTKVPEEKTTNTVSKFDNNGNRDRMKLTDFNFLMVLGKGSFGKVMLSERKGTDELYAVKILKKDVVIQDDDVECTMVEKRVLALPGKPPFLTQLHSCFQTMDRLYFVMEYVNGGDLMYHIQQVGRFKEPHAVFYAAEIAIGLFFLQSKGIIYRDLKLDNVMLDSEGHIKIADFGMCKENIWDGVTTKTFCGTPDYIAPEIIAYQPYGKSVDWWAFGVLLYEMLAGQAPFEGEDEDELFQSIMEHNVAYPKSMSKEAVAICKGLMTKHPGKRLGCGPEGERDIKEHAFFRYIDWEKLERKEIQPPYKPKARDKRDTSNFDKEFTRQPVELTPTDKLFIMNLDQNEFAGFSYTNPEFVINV", "conditions": "ATP 10 µM"}, "MTOR FKBP1A (human)": {"target": "MTOR FKBP1A (human) (UniProt P42345+P62942)", "sequence (P62942 whole entry, looked up, other chains not shown)": "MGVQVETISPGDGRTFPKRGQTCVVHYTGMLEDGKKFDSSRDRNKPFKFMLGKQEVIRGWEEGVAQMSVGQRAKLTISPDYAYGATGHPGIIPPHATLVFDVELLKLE", "conditions": "ATP 45 µM"}, "RPS6KA3 KD1 KD2 (human)": {"target": "RPS6KA3 KD1 KD2 (human) (UniProt P51812)", "sequence (P51812 whole entry, looked up)": "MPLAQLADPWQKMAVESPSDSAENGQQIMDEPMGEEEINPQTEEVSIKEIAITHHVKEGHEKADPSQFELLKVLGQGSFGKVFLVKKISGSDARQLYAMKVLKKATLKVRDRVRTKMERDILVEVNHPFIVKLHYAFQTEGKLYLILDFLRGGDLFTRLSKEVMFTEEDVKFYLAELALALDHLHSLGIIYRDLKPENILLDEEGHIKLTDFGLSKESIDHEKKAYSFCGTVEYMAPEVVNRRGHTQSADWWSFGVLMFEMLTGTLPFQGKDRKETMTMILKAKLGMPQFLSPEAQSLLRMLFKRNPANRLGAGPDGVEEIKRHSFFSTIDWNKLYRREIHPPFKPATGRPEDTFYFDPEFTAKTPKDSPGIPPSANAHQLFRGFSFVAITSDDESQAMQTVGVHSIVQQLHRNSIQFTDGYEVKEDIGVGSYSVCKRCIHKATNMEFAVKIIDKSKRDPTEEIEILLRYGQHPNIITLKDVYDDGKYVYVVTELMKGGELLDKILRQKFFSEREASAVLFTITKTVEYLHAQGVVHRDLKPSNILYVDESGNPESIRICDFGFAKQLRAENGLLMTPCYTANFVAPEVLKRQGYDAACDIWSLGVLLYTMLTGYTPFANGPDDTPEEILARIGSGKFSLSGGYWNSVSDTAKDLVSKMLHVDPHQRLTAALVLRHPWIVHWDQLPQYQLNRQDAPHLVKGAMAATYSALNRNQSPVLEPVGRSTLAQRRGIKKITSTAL", "conditions": "ATP 10 µM"}, "EPHB1 (human)": {"target": "EPHB1 (human) (UniProt P54762)", "conditions": "ATP 200 µM"}, "CAMK2B (human)": {"target": "CAMK2B (human) (UniProt Q13554)", "conditions": "ATP 15 µM"}, "PKN2 (human)": {"target": "PKN2 (human) (UniProt Q16513)", "conditions": "ATP 15 µM"}, "MKNK2 (human)": {"target": "MKNK2 (human) (UniProt Q9HBH9)", "conditions": "ATP 120 µM"}},
  "data": [
    {"smiles": "O=C1Nc2ccccc2/C1=C1\\Nc2ccccc2\\C1=N/O", "values": [
      {"measurement": "residual activity", "setting": "EPHA8 (human); compound 1.0 µM", "value": 84, "unit": "%"},
      {"measurement": "residual activity", "setting": "EPHA8 (human); compound 10.0 µM", "value": 43, "unit": "%"},
      {"measurement": "residual activity", "setting": "MTOR (human); compound 1.0 µM", "value": 100, "unit": "%"},
      {"measurement": "residual activity", "setting": "MTOR (human); compound 10.0 µM", "value": 98, "unit": "%"},
      {"measurement": "residual activity", "setting": "[1]; compound 1.0 µM", "value": 37, "unit": "%"},
      {"measurement": "residual activity", "setting": "[1]; compound 10.0 µM", "value": 13, "unit": "%"},
      {"measurement": "residual activity", "setting": "PRKACA (human); compound 1.0 µM", "value": 90, "unit": "%"},
      {"measurement": "residual activity", "setting": "PRKACA (human); compound 10.0 µM", "value": 54, "unit": "%"},
      {"measurement": "residual activity", "setting": "CDK9 CCNT1 (human); compound 1.0 µM", "value": 26, "unit": "%"},
      {"measurement": "residual activity", "setting": "CDK9 CCNT1 (human); compound 10.0 µM", "value": 11, "unit": "%"},
      {"measurement": "residual activity", "setting": "PRKCG (human); compound 1.0 µM", "value": 92, "unit": "%"},
      {"measurement": "residual activity", "setting": "PRKCG (human); compound 10.0 µM", "value": 73, "unit": "%"},
      {"measurement": "residual activity", "setting": "CAMK1D (human); compound 1.0 µM", "value": 71, "unit": "%"},
      {"measurement": "residual activity", "setting": "CAMK1D (human); compound 10.0 µM", "value": 56, "unit": "%"},
      {"measurement": "residual activity", "setting": "MAPK1 (human); compound 1.0 µM", "value": 104, "unit": "%"},
      {"measurement": "residual activity", "setting": "MAPK1 (human); compound 10.0 µM", "value": 103, "unit": "%"},
      {"measurement": "residual activity", "setting": "CSF1R (human); compound 1.0 µM", "value": 15, "unit": "%"},
      {"measurement": "residual activity", "setting": "CSF1R (human); compound 10.0 µM", "value": 8, "unit": "%"},
      {"measurement": "residual activity", "setting": "MAP3K5 (human); compound 1.0 µM", "value": 52, "unit": "%"},
      {"measurement": "residual activity", "setting": "MAP3K5 (human); compound 10.0 µM", "value": 7, "unit": "%"},
      {"measurement": "residual activity", "setting": "SYK (human); compound 1.0 µM", "value": 49, "unit": "%"},
      {"measurement": "residual activity", "setting": "SYK (human); compound 10.0 µM", "value": 60, "unit": "%"},
      {"measurement": "residual activity", "setting": "PLK3 (human); compound 1.0 µM", "value": 96, "unit": "%"},
      {"measurement": "residual activity", "setting": "PLK3 (human); compound 10.0 µM", "value": 91, "unit": "%"},
      {"measurement": "residual activity", "setting": "NEK7 (human); compound 1.0 µM", "value": 106, "unit": "%"},
      {"measurement": "residual activity", "setting": "NEK7 (human); compound 10.0 µM", "value": 102, "unit": "%"},
      {"measurement": "residual activity", "setting": "TLK2 (human); compound 1.0 µM", "value": 60, "unit": "%"},
      {"measurement": "residual activity", "setting": "TLK2 (human); compound 10.0 µM", "value": 14, "unit": "%"},
      {"measurement": "residual activity", "setting": "SRC (human); compound 1.0 µM", "value": 35, "unit": "%"},
      {"measurement": "residual activity", "setting": "SRC (human); compound 10.0 µM", "value": 5, "unit": "%"},
      {"measurement": "residual activity", "setting": "KIT (human); compound 1.0 µM", "value": 20, "unit": "%"},
      {"measurement": "residual activity", "setting": "KIT (human); compound 10.0 µM", "value": 2, "unit": "%"},
      {"measurement": "residual activity", "setting": "TBK1 (human); compound 1.0 µM", "value": 9, "unit": "%"},
      {"measurement": "residual activity", "setting": "TBK1 (human); compound 10.0 µM", "value": 1, "unit": "%"},
      {"measurement": "residual activity", "setting": "MAP2K7 (human); compound 1.0 µM", "value": 52, "unit": "%"},
      {"measurement": "residual activity", "setting": "MAP2K7 (human); compound 10.0 µM", "value": 7, "unit": "%"},
      {"measurement": "residual activity", "setting": "EPHB3 (human); compound 1.0 µM", "value": 105, "unit": "%"},
      {"measurement": "residual activity", "setting": "EPHB3 (human); compound 10.0 µM", "value": 103, "unit": "%"},
      {"measurement": "residual activity", "setting": "CDK6 CCND3 (human); compound 1.0 µM", "value": 16, "unit": "%"},
      {"measurement": "residual activity", "setting": "CDK6 CCND3 (human); compound 10.0 µM", "value": 5, "unit": "%"},
      {"measurement": "residual activity", "setting": "DYRK2 (human); compound 1.0 µM", "value": 79, "unit": "%"},
      {"measurement": "residual activity", "setting": "DYRK2 (human); compound 10.0 µM", "value": 20, "unit": "%"},
      {"measurement": "residual activity", "setting": "TAOK2 (human); compound 1.0 µM", "value": 75, "unit": "%"},
      {"measurement": "residual activity", "setting": "TAOK2 (human); compound 10.0 µM", "value": 26, "unit": "%"},
      {"measurement": "residual activity", "setting": "PTK6 (human); compound 1.0 µM", "value": 91, "unit": "%"},
      {"measurement": "residual activity", "setting": "PTK6 (human); compound 10.0 µM", "value": 23, "unit": "%"},
      {"measurement": "residual activity", "setting": "FGR (human); compound 1.0 µM", "value": 8, "unit": "%"},
      {"measurement": "residual activity", "setting": "FGR (human); compound 10.0 µM", "value": 1, "unit": "%"},
      {"measurement": "residual activity", "setting": "[2]; compound 1.0 µM", "value": 112, "unit": "%"},
      {"measurement": "residual activity", "setting": "[2]; compound 10.0 µM", "value": 78, "unit": "%"},
      {"measurement": "residual activity", "setting": "PRKCB2 (human); compound 1.0 µM", "value": 95, "unit": "%"},
      {"measurement": "residual activity", "setting": "PRKCB2 (human); compound 10.0 µM", "value": 102, "unit": "%"},
      {"measurement": "residual activity", "setting": "MTOR FKBP1A (human); compound 1.0 µM", "value": 117, "unit": "%"},
      {"measurement": "residual activity", "setting": "MTOR FKBP1A (human); compound 10.0 µM", "value": 89, "unit": "%"},
      {"measurement": "residual activity", "setting": "RPS6KA3 KD1 KD2 (human); compound 1.0 µM", "value": 50, "unit": "%"},
      {"measurement": "residual activity", "setting": "RPS6KA3 KD1 KD2 (human); compound 10.0 µM", "value": 7, "unit": "%"},
      {"measurement": "residual activity", "setting": "EPHB1 (human); compound 1.0 µM", "value": 59, "unit": "%"},
      {"measurement": "residual activity", "setting": "EPHB1 (human); compound 10.0 µM", "value": 13, "unit": "%"},
      {"measurement": "residual activity", "setting": "CAMK2B (human); compound 1.0 µM", "value": 33, "unit": "%"},
      {"measurement": "residual activity", "setting": "CAMK2B (human); compound 10.0 µM", "value": 11, "unit": "%"},
      {"measurement": "residual activity", "setting": "PKN2 (human); compound 1.0 µM", "value": 91, "unit": "%"},
      {"measurement": "residual activity", "setting": "PKN2 (human); compound 10.0 µM", "value": 48, "unit": "%"},
      {"measurement": "residual activity", "setting": "MKNK2 (human); compound 1.0 µM", "value": 62, "unit": "%"},
      {"measurement": "residual activity", "setting": "MKNK2 (human); compound 10.0 µM", "value": 18, "unit": "%"}
    ]}
  ]
}
